Calls of active or inactive are those of the source. No cut-off for these calls is given here.
Tests used:
Plasma = test: Plasma concentration in CD1 mouse at 10 mg/kg, po administered as single dose measured after 0.25 to 2 hrs by LC/MS/MS analysis; type: ADME, organism-based; conditions: in vivo
[1] = Tmax in CD1 mouse plasma at 10 mg/kg, po by LC/MS/MS analysis; type: ADME, organism-based
[2] = target: Glutamate carboxypeptidase 2 (Homo sapiens, UniProt Q04609); test: Inhibition of human recombinant GCP2 expressed in Schneider 2 cells preincubated for 15 mins using [3H]-NAAG/NAAG as substrate measured after 20 mins by liquid scintillation counting
Sequence of Glutamate carboxypeptidase 2 (Q04609 whole entry): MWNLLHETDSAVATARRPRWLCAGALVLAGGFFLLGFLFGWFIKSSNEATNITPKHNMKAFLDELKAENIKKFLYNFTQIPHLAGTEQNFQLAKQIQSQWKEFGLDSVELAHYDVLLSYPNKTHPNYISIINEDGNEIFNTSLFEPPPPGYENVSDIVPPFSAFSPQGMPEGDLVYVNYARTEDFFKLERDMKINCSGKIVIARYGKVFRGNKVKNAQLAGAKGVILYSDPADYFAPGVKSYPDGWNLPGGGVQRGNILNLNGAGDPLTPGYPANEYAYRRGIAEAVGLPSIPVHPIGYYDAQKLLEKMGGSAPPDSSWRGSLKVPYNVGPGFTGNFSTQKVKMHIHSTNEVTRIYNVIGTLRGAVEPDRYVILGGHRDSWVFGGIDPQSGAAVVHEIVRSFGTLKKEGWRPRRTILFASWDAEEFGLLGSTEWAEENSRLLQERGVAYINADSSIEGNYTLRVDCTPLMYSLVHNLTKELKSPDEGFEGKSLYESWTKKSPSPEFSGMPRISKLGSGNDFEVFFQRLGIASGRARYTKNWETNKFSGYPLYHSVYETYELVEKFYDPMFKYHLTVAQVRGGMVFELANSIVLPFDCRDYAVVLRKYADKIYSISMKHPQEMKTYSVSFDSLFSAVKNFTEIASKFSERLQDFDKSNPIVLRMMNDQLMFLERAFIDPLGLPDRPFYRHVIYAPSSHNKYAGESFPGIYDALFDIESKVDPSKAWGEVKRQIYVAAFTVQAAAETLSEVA

[3] = Drug uptake in CD1 mouse sciatic nerve at 10 mg/kg, po administered as single dose measured after 0.25 to 2 hrs by LC/MS/MS analysis; type: ADME, organism-based; conditions: in vivo
[4] = Ratio of CD1 mouse sciatic nerve AUC (0 to 2 hrs) to CD1 mouse plasma AUC (0 to 2 hrs); type: ADME, cell-free; conditions: in vivo
Rattus norvegicus [5] = test: Analgesic activity in Sprague-Dawley rat chronic constrictive injury model of neuropathic pain assessed as increase in paw withdrawal latencies in response to thermal stimulus at 10 mg/kg/day, po administered via oral gavage for 15 days measured from day 4 of compound dosing; type: functional, organism-based
Rattus norvegicus [6] = test: Effect on absolute paw withdrawal latency to thermal stimulus in sham operated Sprague-Dawley rat at 10 mg/kg/day, po administered via oral gavage for 15 days measured over compound dosing; type: ADME, organism-based; conditions: in vivo, 360 h

Row | concentration (Plasma) [nM] | Tmax [1] [min] | IC50 [2] [nM] | Drug uptake [3] | Ratio AUC [4] [%] | SMILES | Activity (Rattus norvegicus [5]) | Activity (Rattus norvegicus [6])
1 | 121 | 15 | 97 | Active | 43 | O=C(CC[C@@H](Cc1ccc(C(=O)O)cc1)C(=O)O)NO | Active | Non-toxic
2 |  |  | 44 |  |  | O=C(CC[C@H](Cc1ccc(C(=O)O)cc1)C(=O)O)NO |  | 
3 |  |  | 63 |  |  | O=C(CCC(Cc1ccc(C(=O)O)cc1)C(=O)O)NO (racemic) |  | 
